In ChEMBL document CHEMBL5303573, “Mapping human microbiome drug metabolism by gut bacteria and their genes” (Nature, 2019):

How the values were obtained:
[1] = The drug is tested on Bifidobacterium ruminantium strain: fecal isolate for biotransformation. The drug concentrations were measured before and after a 12-h incubation by liquid-chromatography-coupled mass spectrometry (LC–MS); details: 2 µM
[2] = The drug is tested on Collinsella aerofaciens strain: ATCC25986 for biotransformation. The drug concentrations were measured before and after a 12-h incubation by liquid-chromatography-coupled mass spectrometry (LC–MS); details: 2 µM
[3] = The drug is tested on Bacteroides cellulosilyticus strain: DSM14838 for biotransformation. The drug concentrations were measured before and after a 12-h incubation by liquid-chromatography-coupled mass spectrometry (LC–MS); details: 2 µM
[4] = The drug is tested on Bacteroides fragilis strain: HMW615 for biotransformation. The drug concentrations were measured before and after a 12-h incubation by liquid-chromatography-coupled mass spectrometry (LC–MS); details: 2 µM
[5] = The drug is tested on Odoribacter splanchnicus strain: fecal isolate for biotransformation. The drug concentrations were measured before and after a 12-h incubation by liquid-chromatography-coupled mass spectrometry (LC–MS); details: 2 µM
[6] = The drug is tested on Anaerotruncus colihominis strain: DSM17241 for biotransformation. The drug concentrations were measured before and after a 12-h incubation by liquid-chromatography-coupled mass spectrometry (LC–MS); details: 2 µM
[7] = The drug is tested on Blautia hansenii strain: DSM20583 for biotransformation. The drug concentrations were measured before and after a 12-h incubation by liquid-chromatography-coupled mass spectrometry (LC–MS); details: 2 µM
[8] = The drug is tested on Clostridium asparagiforme strain: DSM15981 for biotransformation. The drug concentrations were measured before and after a 12-h incubation by liquid-chromatography-coupled mass spectrometry (LC–MS); format: ADME; set-up: dose 2 uM, timepoint 0 vs 12 hours; details: enterocloster asparagiformis, 2 µM
[9] = The drug is tested on Clostridium ramosum strain: DSM1402 for biotransformation. The drug concentrations were measured before and after a 12-h incubation by liquid-chromatography-coupled mass spectrometry (LC–MS); details: thomasclavelia ramosa, 2 µM
[10] = The drug is tested on Coprococcus comes strain: ATCC27758 for biotransformation. The drug concentrations were measured before and after a 12-h incubation by liquid-chromatography-coupled mass spectrometry (LC–MS); format: ADME; set-up: dose 2 uM, timepoint 0 vs 12 hours; details: 2 µM
[11] = The drug is tested on Ruminococcus lactaris strain: ATCC29176 for biotransformation. The drug concentrations were measured before and after a 12-h incubation by liquid-chromatography-coupled mass spectrometry (LC–MS); details: 2 µM
[12] = The drug is tested on Enterobacter cancerogenus strain: ATCC35316 for biotransformation. The drug concentrations were measured before and after a 12-h incubation by liquid-chromatography-coupled mass spectrometry (LC–MS); details: 2 µM
[13] = The drug is tested on Providencia rettgeri strain: DSM1131 for biotransformation. The drug concentrations were measured before and after a 12-h incubation by liquid-chromatography-coupled mass spectrometry (LC–MS); format: ADME; set-up: dose 2 uM, timepoint 0 vs 12 hours; details: 2 µM
[14] = bacteroides fragilis, 12 h, 2 µM
Description: The drug is tested on Bacteroides fragilis strain: NCTC 9343 for biotransformation. The drug concentrations were measured before and after a 12-h incubation by liquid-chromatography-coupled mass spectrometry (LC–MS)

[15] = bacteroides fragilis, 12 h, 2 µM; remark: listed apart in the source
Description: The drug is tested on Bacteroides fragilis strain: DS-208 for biotransformation. The drug concentrations were measured before and after a 12-h incubation by liquid-chromatography-coupled mass spectrometry (LC–MS)

[16] = The drug is tested on Bacteroides caccae strain: ATCC43185 for biotransformation. The drug concentrations were measured before and after a 12-h incubation by liquid-chromatography-coupled mass spectrometry (LC–MS); details: 2 µM
[17] = The drug is tested on Clostridium sporogenes strain: ATCC15579 for biotransformation. The drug concentrations were measured before and after a 12-h incubation by liquid-chromatography-coupled mass spectrometry (LC–MS); details: 2 µM
[18] = The drug is tested on Ruminococcus torques strain: ATCC27756 for biotransformation. The drug concentrations were measured before and after a 12-h incubation by liquid-chromatography-coupled mass spectrometry (LC–MS); format: ADME; set-up: dose 2 uM, timepoint 0 vs 12 hours; details: 2 µM
[19] = bacteroides intestinalis, 12 h, 2 µM
Description: The drug is tested on Bacteroides intestinalis strain: DSM17393 for biotransformation. The drug concentrations were measured before and after a 12-h incubation by liquid-chromatography-coupled mass spectrometry (LC–MS)

[20] = The drug is tested on Bifidobacterium longum subsp. Infantis strain: CCUG52486 for biotransformation. The drug concentrations were measured before and after a 12-h incubation by liquid-chromatography-coupled mass spectrometry (LC–MS); details: 2 µM

Row | Bacterial Biotransformation [1] | Bacterial Biotransformation [2] | Bacterial Biotransformation [3] | Bacterial Biotransformation [4] | Bacterial Biotransformation [5] | Bacterial Biotransformation [6] | Bacterial Biotransformation [7] | Bacterial Biotransformation [8] | Bacterial Biotransformation [9] | Bacterial Biotransformation [10] | Bacterial Biotransformation [11] | Bacterial Biotransformation [12] | Bacterial Biotransformation [13] | Bacterial Biotransformation [14] | Bacterial Biotransformation [15] | Bacterial Biotransformation [16] | Bacterial Biotransformation [17] | Bacterial Biotransformation [18] | Bacterial Biotransformation [19] | Bacterial Biotransformation [20] | Structure (SMILES)
1 | Compound NOT metabolized | Compound NOT metabolized | Compound NOT metabolized | Compound metabolized | Compound metabolized | Compound NOT metabolized | Compound metabolized | Compound NOT metabolized | Compound NOT metabolized | Compound metabolized | Compound NOT metabolized | Compound NOT metabolized | Compound NOT metabolized | Compound metabolized | Compound metabolized | – | – | – | – | – | CCCCC(=O)O[C@]1(C(=O)CO)[C@@H](C)C[C@H]2[C@@H]3CCC4=CC(=O)C=C[C@]4(C)[C@@]3(F)[C@@H](O)C[C@@]21C [BETAMETHASONE VALERATE]
2 | Compound NOT metabolized | Compound NOT metabolized | Compound metabolized | Compound metabolized | Compound metabolized | Compound NOT metabolized | Compound metabolized | Compound metabolized | Compound metabolized | Compound metabolized | – | Compound NOT metabolized | Compound NOT metabolized | Compound metabolized | – | Compound metabolized | Compound metabolized | Compound NOT metabolized | Compound metabolized | – | COc1c2occc2cc2ccc(=O)oc12 [METHOXSALEN]
3 | Compound NOT metabolized | Compound NOT metabolized | Compound NOT metabolized | Compound NOT metabolized | – | Compound NOT metabolized | Compound NOT metabolized | Compound NOT metabolized | Compound NOT metabolized | Compound NOT metabolized | Compound NOT metabolized | Compound NOT metabolized | Compound NOT metabolized | Compound NOT metabolized | Compound NOT metabolized | Compound NOT metabolized | Compound NOT metabolized | Compound NOT metabolized | Compound NOT metabolized | Compound NOT metabolized | COC(=O)[C@H]1[C@H]2C[C@@H]3c4[nH]c5cc(OC)ccc5c4CCN3C[C@H]2C[C@@H](OC(=O)c2cc(OC)c(OC)c(OC)c2)[C@@H]1OC [RESERPINE]
